Measurements as given in patent US20210228560A1 (Centogene IP GmbH, priority 2011, published 2021).

What was measured:
[1] = system: acid α-glucosidase mutants; type: cell-based
Experimental: (§1) A bacterial clone containing the full length cDNA of […] (IRATp970C0971D, aligned to accession no. NM_000152.3, GeneBank) was received form ImaGenes GmbH, Berlin, Germany. Amplification was performed with the primers 5′-TAGGAGCTGTCCAGGCCATC-3′ (SEQ ID NO:3) and 5′-GAGAGACTAACACACTCCGC-3′ (SEQ ID NO:4). The PCR was carried out using iProof DNA Polymerase (BioRad). The cDNA was subcloned into pCRII TA TOPO vector (Invitrogen). Prior to ligation, the cDNA insert was incubated with Taq polymerase (Qiagen) to add a poly (A) overhang at the 3′-end for TA-cloning. For expression, the GAA cDNA was ligated into target vector pcDNA3.1/V5-His6 (Invitrogen) using sticky end ligation utilizing unique restriction sites (HindIII, XhoI) offered by both vectors multiple cloning sites.
(§2) Sample preparation was carried out analogously to the α-galactosidase A recordings. As substrate, a 1.3 mg 4-Methylumbelliferyl-α-D-Glukopyranoside/ml solution (in sodium acetate buffer, pH 4.0) was used and 5 μg sample/reaction were added. The reaction was incubated for 60 minutes at 37° C. and stopped with 1M Glycine-NaOH, pH 10.5.

[2] = target: acid α-glucosidase mutants (Homo sapiens, UniProt P10253, Y575S); type: cell-based; conditions: NB-DNJ and Ambroxol combination; FIG. 7A
acid α-glucosidase mutants (Homo sapiens, UniProt P10253, Y575S), sequence (P10253 70-952 Y575S): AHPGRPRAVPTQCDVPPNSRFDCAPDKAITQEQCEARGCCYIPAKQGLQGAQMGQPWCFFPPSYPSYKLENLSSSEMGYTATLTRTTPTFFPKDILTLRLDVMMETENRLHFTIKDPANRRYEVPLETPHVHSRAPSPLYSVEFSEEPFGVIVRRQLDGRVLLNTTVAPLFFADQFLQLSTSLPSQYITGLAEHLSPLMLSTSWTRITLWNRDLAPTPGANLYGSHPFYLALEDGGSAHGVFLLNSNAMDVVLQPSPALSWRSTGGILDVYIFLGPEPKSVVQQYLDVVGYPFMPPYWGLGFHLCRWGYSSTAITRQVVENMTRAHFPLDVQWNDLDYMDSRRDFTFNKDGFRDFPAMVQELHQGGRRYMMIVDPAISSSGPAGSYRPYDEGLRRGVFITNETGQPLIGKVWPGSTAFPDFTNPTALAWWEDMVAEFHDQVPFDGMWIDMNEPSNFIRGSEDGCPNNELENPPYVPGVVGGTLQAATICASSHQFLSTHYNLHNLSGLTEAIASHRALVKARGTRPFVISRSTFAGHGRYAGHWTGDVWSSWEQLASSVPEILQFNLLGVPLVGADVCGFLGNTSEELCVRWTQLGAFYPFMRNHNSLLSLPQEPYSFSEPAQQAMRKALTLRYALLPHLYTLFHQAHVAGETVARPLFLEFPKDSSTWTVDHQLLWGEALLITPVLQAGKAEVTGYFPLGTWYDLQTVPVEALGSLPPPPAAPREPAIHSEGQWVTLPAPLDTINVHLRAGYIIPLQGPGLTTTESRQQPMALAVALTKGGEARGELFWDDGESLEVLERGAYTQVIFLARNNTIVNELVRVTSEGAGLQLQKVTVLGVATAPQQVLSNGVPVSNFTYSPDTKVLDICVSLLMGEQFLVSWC
Experimental: as §1, §2

[3] = system: α-Gal A protein (GLA mutants); test: Western blot of GLA protein levels in cells transfected with GLA mutants; type: cell-based; conditions: DGJ and Ambroxol compared to DGJ alone; FIG. 4
Experimental: Western blot analysis for the detection of α-Gal A protein was performed using a commercially available rabbit anti-α-Gal A polyclonal antibody ([H-104] Santa Cruz) Furthermore, a mouse GAPDH monoclonal antibody ([6C5] abcam) was used as an internal loading control.
The cells were then rinsed off from the wells, transferred to micro centrifuge tubes and spun at 14000×g for 10 minutes at 4° C. to pellet the cell debris. The supernatant was used for the analysis. After the determination of protein concentration, […] protein were mixed with a suitable volume of 5× Laemmli loading buffer, boiled for 5 minutes on a thermo shaker (Eppendorf), centrifuged at 14000×g for 10 minutes at 4° C. and loaded on a Criterion precast 4-15% Tris-HCl gel (Bio-Rad). Proteins were transferred electorophoretically to a Nitrocellulose (Amersham Hybond ECL) membrane (GE Healthcare). The membrane was blocked with 5% (w/v) non-fat dried skimmed milk in TBS-Tween 20 [10 mM Tris/HCl (pH 7.5) with 150 mM NaCl and 0.1% Tween 20] at room temperature for 1 hour, and then treated with a primary antibody against GAPDH diluted 1:10000 in a milk/blot solution [3% (w/v) non-fat dried skimmed milk in TBS-Tween 20] at 4° C. overnight. […] Following extensive washing with TBS-Tween 20, protein bands were visualized with an Odyssey Infrared Imager (Li-Cor) and quantified using the Odyssey software.

[4] = target: GLA mutants (alpha-galactosidase A) (Homo sapiens, UniProt P06280, T410I); conditions: GLA mutant T410I; Ambroxol in combination with DGJ
GLA mutants (alpha-galactosidase A) (Homo sapiens, UniProt P06280, T410I), sequence (P06280 32-429 T410I): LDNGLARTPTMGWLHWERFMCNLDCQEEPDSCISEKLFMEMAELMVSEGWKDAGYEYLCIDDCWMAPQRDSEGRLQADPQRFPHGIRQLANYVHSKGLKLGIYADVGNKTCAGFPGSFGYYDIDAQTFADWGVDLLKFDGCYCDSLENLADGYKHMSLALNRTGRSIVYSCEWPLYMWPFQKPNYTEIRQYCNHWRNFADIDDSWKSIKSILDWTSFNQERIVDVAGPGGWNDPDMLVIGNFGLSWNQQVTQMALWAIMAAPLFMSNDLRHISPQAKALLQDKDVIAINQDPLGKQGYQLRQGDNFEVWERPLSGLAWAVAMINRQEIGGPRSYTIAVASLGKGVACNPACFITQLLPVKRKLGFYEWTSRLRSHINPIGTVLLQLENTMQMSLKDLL

[5] = target: GLA mutants (alpha-galactosidase A) (Homo sapiens, UniProt P06280, R363H); conditions: GLA mutant R363H; Ambroxol in combination with DGJ
GLA mutants (alpha-galactosidase A) (Homo sapiens, UniProt P06280, R363H), sequence (P06280 32-429 R363H): as the sequence (P06280 32-429 T410I) above, with R332H, I379T counted along it

[6] = target: GLA mutants (alpha-galactosidase A) (Homo sapiens, UniProt P06280, H225R); conditions: GLA mutant H225R; Ambroxol in combination with DGJ
GLA mutants (alpha-galactosidase A) (Homo sapiens, UniProt P06280, H225R), sequence (P06280 32-429 H225R): as the sequence (P06280 32-429 T410I) above, with H194R, I379T counted along it

[7] = target: GLA mutants (alpha-galactosidase A) (Homo sapiens, UniProt P06280, R356W); conditions: GLA mutant R356W; Ambroxol in combination with DGJ
GLA mutants (alpha-galactosidase A) (Homo sapiens, UniProt P06280, R356W), sequence (P06280 32-429 R356W): as the sequence (P06280 32-429 T410I) above, with R325W, I379T counted along it

[8] = system: GLA mutants (alpha-galactosidase A)
[9] = target: GLA mutants (alpha-galactosidase A) (Homo sapiens, UniProt P06280, E59K); conditions: GLA mutant E59K; Ambroxol in combination with DGJ
GLA mutants (alpha-galactosidase A) (Homo sapiens, UniProt P06280, E59K), sequence (P06280 32-429 E59K): as the sequence (P06280 32-429 T410I) above, with E28K, I379T counted along it

GLA[R301G] = target: T1, GLA[R301G] (Homo sapiens, UniProt P06280, R301G); type: cell-based; conditions: 20 μM DGJ and 40 μM Ambroxol; untreated = 1.0; FIG. 5B
T1 sequence (P06280 32-429 R301G): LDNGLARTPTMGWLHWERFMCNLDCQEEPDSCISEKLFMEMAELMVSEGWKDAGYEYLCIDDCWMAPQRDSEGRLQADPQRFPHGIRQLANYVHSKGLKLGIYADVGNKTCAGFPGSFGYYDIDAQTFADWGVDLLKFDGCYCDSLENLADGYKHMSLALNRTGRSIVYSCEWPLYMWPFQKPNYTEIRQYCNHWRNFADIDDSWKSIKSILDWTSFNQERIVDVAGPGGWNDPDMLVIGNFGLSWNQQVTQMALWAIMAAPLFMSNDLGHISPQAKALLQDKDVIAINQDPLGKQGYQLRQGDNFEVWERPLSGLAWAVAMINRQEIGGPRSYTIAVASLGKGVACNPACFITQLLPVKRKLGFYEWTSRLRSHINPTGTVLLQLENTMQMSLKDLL

additive Ambroxol effect demonstrated [4]: * (*p≤0.1)
additive Ambroxol effect demonstrated [5]: *** (***p≤0.01)
additive Ambroxol effect demonstrated [6]: ** (**p≤0.05)
additive Ambroxol effect demonstrated [7]: **** (****p≤0.005)
additive Ambroxol effect demonstrated [9]: **** (****p≤0.005)
increase of GLA[R301G] activity (GLA[R301G]): 4.1 fold
SMILES: Nc1c(Br)cc(Br)cc1CN[C@H]1CC[C@H](O)CC1 [Ambroxol, 2-amino-3,5-dibromo-N-[trans-4-hydroxycyclohexyl]benzylamine]
activity of acid α-glucosidase, Ambroxol in combination with NB-DNJ ([1]; 20 μM NB-DNJ + 40 μM Ambroxol compared to 20 μM NB-DNJ alone, FIG. 7): enhanced
enzyme activity of mutations Y455F, P545L and L552P, combined treatment ([1]; 20 μM NB-DNJ and 40 μM Ambroxol, FIG. 7A): significantly increased
activity of mutant acid α-glucosidase, Ambroxol alone ([1]; 40 μM Ambroxol without chaperone): not leading to an enhancement
activity when additionally treated with Ambroxol ([1]; mutations Y455F, P545L and L552P, compared to NB-DNJ): tendency for higher activities
responsiveness of mutation Y575S [2]: clear tendency to be responsive only towards the combination
amount of Gal A protein in the cell (Western blot) [3]: higher amount of Gal A
effect on enzyme activity of the mutant forms of GLA ([8]; 40 μM Ambroxol alone, FIG. 1): no effect
activity of mutant alpha-galactosidase A, Ambroxol together with Galactose ([8]; compared to Galactose only, 100 mM galactose and 40 μM Ambroxol (FIG. 3B)): increased
significance of protein activity, Ambroxol and DGJ compared to DGJ alone ([8]; mutations E59K, A156V and G328A, FIG. 6): significant
